{"source": "patent US9107954B2", "about": "“Bivalent ligands for the treatment of neurological disorders” (Virginia Commonwealth University, priority 2012, dated 2015)", "key": {"[1]": {"test_system": "R5-tropic HIV-1SF162 in primary human astrocytes", "assay": "HIV-1SF162 infectivity, Tat luciferase reporter assay in primary human astrocytes", "assay_type": "cell-based", "conditions": "for effect on viral entry / Tat production, Example 4 / effect on virus invasion (Tat expression), Example 3: MVC 100 nM; for effect on viral entry / Tat production, Example 4: NTX 1.5 μM, 18 h; for effect on virus invasion (Tat expression), Example 3: NTX 1500 nM, naltrexone groups with and without morphine", "protocol": "Primary human astrocytes (ScienCell catalog #1901) were cultured in 24-well plates and transfected with the plasmid pBlue3′LTR-luc (NIH AIDS Research and Reference Reagent Program) using Lipofectamine 2000 (Invitrogen) followed by infection with HIV-1. After 18-20 h cells were rinsed twice in 1×PBS then lysed in Cell Culture Lysis Reagent (Promega) and relative Tat protein expression was determined by measuring luciferase activity using the Luciferase Assay System (Promega; catalog # E1500). Light units were measured using a PHERAstar FS plate reader (BMG Labtech).\nPrimary human astroglial cells were infected by incubation with the neurotropic HIV-1 strain SF162. A concentration of HIV-1 p24 50 pg/10^6 cells was used, and a no virus condition served as a negative control. Viral stocks were quantified by assaying for HIV-1 p24 (Alliance p24 Antigen ELISA Kit; Advanced Bioscience, Kensington, Md.).\nHIV-1SF162 infectivity of human astroglia was determined based on the relative amount of Tat protein expressed by the virus using a luciferase-based reporter assay. Reporters under the control of the long terminal repeat (LTR) viral promoter are a robust means of measuring HIV-1 infection, since the LTR is activated by HIV-1 Tat, which is only expressed by infected cells.\nAs the bivalent ligand 1 has been designed as a molecular probe to study the underlying mechanisms of opioid-enhanced NeuroAIDS by targeting the MOR-CCR5 heterodimerization, a luciferase-based HIV-1SF162) infection assay measuring the relative transactivator of transcription (Tat) protein expression in human astrocytes was performed (FIG. 15). Tat is encoded by HIV-1 and is the first protein to be produced after HIV-1 infection. Thus, Tat expression level is directly proportioned to the extent of HIV-1 invasion. Astrocytes were chosen based on the following facts: first, astrocytes express both the MOR and the CCR5. Second, the human blood-brain barrier (BBB) is composed of interacting adjacent cerebral endothelial cells (CECs) and astrocytes, which makes astrocytes a readily accessible target during the course of HIV infection. Thirdly, during NeuroAIDS development astroglia are important cellular sites within the CNS where opioids synergistically potentiate the pathophysiological effects of HIV-1 infection."}, "[2]": {"test_system": "fusion of CCR5-MOR CHO target cells (CD4) with HEK effector cells (HIV-1 gp140)", "assay_type": "cell-based", "conditions": "for effect on cell fusion: 1 at 3000 nM, 2 at 10000 nM, maraviroc at 100 nM"}, "human astrocytes": {"test_system": "human astrocytes", "assay": "Cytotoxicity assay, AOPI live/dead labeling of human astrocytes", "assay_type": "cell-based", "protocol": "Cell viability was assessed by measurement of both live and dead cells using dual (green/red) fluorescence labeling with AOPI analyzed with Cellometer Vision CBA (Nexcelom Bioscience LLC).\nTo determine whether HIV-1±morphine exposure affected astrocyte viability in the presence or absence of MVC or the bivalent compound, a cell death assay was performed at 24 h after treatment."}, "mu opioid receptor (MOR)": {"target": "mu opioid receptor (MOR) (Homo sapiens (Human), UniProt P35372)", "assay": "MOR competitive radioligand binding, [3H]naloxone, hMOR-expressed CHO cells", "protocol": "MOR/CHO cell culture and membrane homogenate preparation followed literature report^52.\nSaturation binding was performed by incubating membranes for 90 minutes at 30° C. with 0.5-15 nM [^3H]naloxone in assay buffer in a 0.5 mL volume. […] The reaction was terminated by rapid filtration through Whatman GF/B glass fiber filters, followed by 3 washes with 3 mL ice-cold Tris buffer. Bound radioactivity will be determined by liquid scintillation spectrophotometry at 45% efficiency for [^3H].\nFor competition binding assay (agonists or antagonists), Hill plots linear regression analysis and the Cheng-Prusoff equation were applied to determine the IC50 and Ki values. In [^35S]GTPγS binding assays, agonist concentration effect curves were fit by non-linear regression to obtain Emax and EC50 values; antagonist inhibition of agonist-stimulated [^35S]GTPγS binding was analyzed by Hill analysis and AD50 values were corrected to Ki values using the Cheng-Prusoff equation. All analyses were using Prism 4.0.\nHerein is reported the characterization of this novel molecular probe in for its binding affinity, Ca^2+ flux functional activity, and HIV-1 inhibition potency."}, "CCR5 [3]": {"target": "CCR5 (Homo sapiens (Human), UniProt P51681)", "sequence (P51681 whole entry, the tested form may be a part)": "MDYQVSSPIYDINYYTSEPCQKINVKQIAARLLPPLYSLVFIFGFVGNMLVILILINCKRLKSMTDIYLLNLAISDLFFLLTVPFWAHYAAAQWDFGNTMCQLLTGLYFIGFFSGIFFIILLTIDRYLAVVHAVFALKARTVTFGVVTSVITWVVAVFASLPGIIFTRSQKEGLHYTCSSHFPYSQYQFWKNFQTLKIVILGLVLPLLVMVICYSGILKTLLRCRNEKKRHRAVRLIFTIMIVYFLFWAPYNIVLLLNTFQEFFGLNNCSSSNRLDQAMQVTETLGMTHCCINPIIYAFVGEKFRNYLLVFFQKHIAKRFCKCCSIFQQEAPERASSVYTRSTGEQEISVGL", "assay": "Calcium mobilization assay, CCR5-MOR CHO co-expressed cell line (Gqi5), RANTES-stimulated", "assay_type": "cell-based", "protocol": "(§1) Having a cell line that consistently expresses both CCR5 and MOR was essential for studying how the two receptors interact with each other using calcium mobilization assays and cell fusion assays. A previously established MOR Chinese hamster ovarian (CHO) cell line was transfected with a plasmid containing CCR5 tagged with a yellow fluorescent protein on its N-terminus (CCR5-YFP). ^1 After 48 hours cells were sorted based upon the presence of the yellow fluorescent protein tag using a flow cytometer. Cells containing the tagged receptors were then cultured and used in the subsequent assays.\n(§2) Calcium mobilization is directly related to G protein-coupled receptor (GPCR) activation and therefore is a useful technique to study the functional activity of new ligands."}, "MOR [4]": {"target": "T1, MOR (Homo sapiens (Human), UniProt P35372)", "assay": "Calcium mobilization assay, CCR5-MOR CHO co-expressed cell line (Gqi5), DAMGO-stimulated", "assay_type": "cell-based", "conditions": "cells stimulated with DAMGO; read-out: MOR IC50", "protocol": "as §1, §2"}, "MOR [5]": {"target": "T1, MOR", "assay": "DAMGO-stimulated Ca2+ flux assay in hMOR-CHO cells transfected with Gqi5", "assay_type": "cell-based"}, "CCR5 [6]": {"test_system": "CCR5", "assay": "Flow cytometry of CCR5 immunofluorescence in HIV-1 infected primary human astrocytes", "assay_type": "cell-based", "conditions": "vs uninfected", "protocol": "MOR and CCR5 immunoreactivity were detected by direct immunofluorescence in astroglial cells by flow cytometric analysis. Cells were washed in phosphate-buffered saline (PBS)-0.1% bovine serum albumin (BSA) buffer and incubated with primary MOR antibody followed by a secondary antibody conjugated to allophycocyanin (APC) (Biolegend, Inc; catalog #408001) and Alexa Fluor® 488 conjugated anti-mouse CD195 (CCR5) antibody (Biolegend, Inc; catalog #107008) in permeabilization buffer (PBS-0.1% BSA-0.1% Triton X-100) at a 1:500 dilution. Fluorescence was measured from 10,000 gated cells per treatment in each experiment using a FACSCanto II flow cytometer (BD Biosciences, San Jose, Calif.). Auto-fluorescence was compensated by setting the detector voltage to the minimum level that discriminates between auto-fluorescence and specific immunofluorescence in both negative and positive controls. Isotype control antibodies were used to define settings in histogram plot analyses.\nWe quantitatively analyzed the effect of MVC and the bivalent compound on CCR5 and MOR expression levels in virally infected astrocytes by flow cytometry. […] Approximately 20,000 events were analyzed per treatment condition in each experiment and size discrimination was used as a crude method for viability determination."}}, "note": "Where two headings read alike, the source gives them in different places.", "data": [{"smiles": "Cc1nnc(C(C)C)n1C1CC2CCC(C1)N2CCC(NC(=O)C1CCC(F)(F)CC1)c1ccc(N)cc1", "note": "(stereo not shown)", "values": [{"measurement": "melting point", "result": "109 to 110", "unit": "°C"}]}, {"smiles": "Cc1nnc(C(C)C)n1C1C[C@H]2CC[C@@H](C1)N2CC[C@H](NC(=O)C1CCC(F)(F)CC1)c1ccccc1", "note": "(stereo in doubt) [Maraviroc, reference compound]", "values": [{"measurement": "effect on viral entry / Tat production, Example 4", "setting": "[1]", "result": "considerably inhibited viral entry"}, {"measurement": "effect on virus invasion (Tat expression), Example 3", "setting": "[1]", "result": "virus invasion is decreased"}, {"measurement": "effect on cell fusion", "setting": "[2]", "result": "significantly lowered cell fusion"}, {"measurement": "amplification of cell fusion inhibition when morphine present", "setting": "[2]; morphine 300 nM", "result": "not amplified"}, {"measurement": "astrocyte viability", "setting": "human astrocytes; 100 nM, HIV-1 ± morphine, 24 h", "result": "not significantly different"}, {"measurement": "toxicity in the astrocytes, cytotoxicity assays (not shown)", "setting": "human astrocytes; Example 3", "result": "neither maraviroc nor 1 had any toxicity"}, {"measurement": "toxicity to the cells at higher concentration", "setting": "human astrocytes; concentration higher than 100 nM", "result": "increased toxicity to the cells"}]}, {"smiles": "O=C1CC[C@@]2(O)[C@H]3Cc4ccc(O)c5c4[C@@]2(CCN3CC2CC2)[C@H]1O5", "note": "[Naltrexone, reference compound]", "values": [{"measurement": "effect on viral entry / Tat production, Example 4", "setting": "[1]", "result": "did not show significant effect"}, {"measurement": "effect on virus invasion (Tat expression), Example 3", "setting": "[1]", "result": "no effect on virus invasion"}]}, {"smiles": "Cc1nnc(C(C)C)n1C1CC2CCC(C1)N2CC[C@H](NC(=O)C1CCC(F)(F)CC1)c1cccc(NC(=O)COCC(=O)NCCCCCCCNC(=O)COCC(=O)N[C@@H]2CC[C@@]3(O)[C@H]4Cc5ccc(O)c6c5[C@@]3(CCN4CC3CC3)[C@H]2O6)c1", "note": "(stereo partly shown) [compound 2]", "values": [{"measurement": "Ki", "setting": "mu opioid receptor (MOR); Example 1, read-out: binding affinity to the mu opioid receptor, Ki", "result": "9.18 ± 3.44", "unit": "nM"}, {"measurement": "Ki", "setting": "mu opioid receptor (MOR); mean of three experiments, read-out: Radioligand binding Ki ± SEM", "result": "9.2 ± 3.4", "unit": "nM"}, {"measurement": "fold loss in CCR5 antagonist activity compared to maraviroc", "setting": "CCR5 [3]", "result": 800, "unit": "fold"}, {"measurement": "IC50", "setting": "CCR5 [3]; cells stimulated with RANTES", "result": "14000 ± 345", "unit": "nM"}, {"measurement": "IC50", "setting": "MOR [4]", "result": "17.4 ± 5.74", "unit": "nM"}, {"measurement": "IC50", "setting": "MOR [5]; DAMGO stimulated, hMOR-CHO Gqi5, read-out: Ca2+ inhibition IC50 ± SEM", "result": "37.8 ± 4.4", "unit": "nM"}, {"measurement": "agonism in Ca2+ mobilization assay", "setting": "MOR [5]; hMOR-CHO Gqi5, data not shown", "result": "No agonism"}, {"measurement": "effect on cell fusion", "setting": "[2]", "result": "significantly lowered cell fusion"}, {"measurement": "amplification of cell fusion inhibition when morphine present", "setting": "[2]; morphine 300 nM", "result": 2, "unit": "fold"}]}, {"smiles": "CN1CC[C@]23c4c5ccc(O)c4O[C@H]2[C@@H](O)C=C[C@H]3[C@H]1C5", "note": "[morphine, reference compound]", "values": [{"measurement": "fold increase in CCR5 expression levels, HIV-1R5 in combination with morphine", "setting": "CCR5 [6]", "result": 3.3, "unit": "fold"}, {"measurement": "fold increase in Tat expression after infection with R5 in combination with morphine", "setting": "[1]; morphine 500 nM, vs uninfected", "result": "~2.7", "unit": "fold"}, {"measurement": "effect of morphine on cell fusion", "setting": "[2]; morphine 300 nM, +CD4, vs +CD4 alone", "result": "significant increase"}]}]}
